This is an account of results in ChEMBL document CHEMBL1921781, “Antibacterial and antitubercular activity of fosmidomycin, FR900098, and their lipophilic analogs” (2011).

≈ marks a conversion by molar mass, not a printed value.

Holding throughout (assay type): functional
The test system of assay [1] is Escherichia coli. Kind of assay: Antibacterial activity against Escherichia coli expressing TolC after overnight incubation by microbroth dilution method.
Assay [2] deals with Acinetobacter. As to the kind of experiment: Antibacterial activity against Acinetobacter after overnight incubation by microbroth dilution method.
In assay [3] the test system is Mycobacterium tuberculosis. As to the kind of experiment: Antitubercular activity against Mycobacterium tuberculosis H37Rv after 7 days by microbroth dilution method. Particulars: 168 h.
In assay [4] the test system is Enterococcus faecalis. As to the kind of experiment: Antibacterial activity against Enterococcus faecalis after overnight incubation by microbroth dilution method.
In assay [5] the test system is Bacillus anthracis. As to the kind of experiment: Antibacterial activity against Bacillus anthracis after overnight incubation by microbroth dilution method.
For assay [6], the system named is Staphylococcus aureus. Kind of assay: Antibacterial activity against methicillin-susceptible Staphylococcus aureus after overnight incubation by microbroth dilution method.
The test system of assay [7] is Escherichia coli. As to the kind of experiment: Antibacterial activity against Escherichia coli K-12 after overnight incubation by microbroth dilution method.
For assay [8], the system named is Staphylococcus aureus. Kind of assay: Antibacterial activity against methicillin-resistant Staphylococcus aureus after overnight incubation by microbroth dilution method.

As for `CC(=O)N(O)CCCP(=O)([O-])O.[Na+]`, the MIC in assay [1] is 12.5 mg/L; in assay [2], 50 mg/L; in assay [3] it was more than 500 mg/L; in assay [4], more than 200 mg/L; in assay [5], 50 mg/L; in assay [6] it was more than 200 mg/L. Also, the MIC in assay [7] stood at 200 mg/L; in assay [8], 50 mg/L.

In the case of `CCOP(=O)(CCCN(O)C=O)OCC`, the minimal inhibitory concentration (MIC) was more than 200 mg/L in assay [1]; more than 200 mg/L in assay [2]; 400 mg/L (≈ 1670 µM) in assay [3]; more than 200 mg/L in assay [4]; more than 200 mg/L in assay [5]; more than 200 mg/L in assay [6]. The minimum inhibitory concentration (MIC) in assay [7] and in assay [8] was more than 200 mg/L throughout.

With `CCOP(=O)(CCCN(O)C(C)=O)OCC`, the minimum inhibitory concentration (MIC) in assay [1] was more than 200 mg/L; in assay [2], more than 200 mg/L; in assay [3], 200 mg/L (≈ 790 µM); in assay [4], more than 200 mg/L; in assay [5] it was 200 mg/L (≈ 790 µM); in assay [6] it was more than 200 mg/L. The MIC in assay [7] was more than 200 mg/L; in assay [8], 200 mg/L (≈ 790 µM).

As for `CC(=O)N(O)CCCP(=O)(OC(C)C)OC(C)C`, the MIC in assay [1] is more than 200 mg/L; in assay [2], more than 200 mg/L; in assay [3], 400 mg/L (≈ 1420 µM); in assay [4], more than 200 mg/L; in assay [5] it was more than 200 mg/L; in assay [6], more than 200 mg/L. The minimal inhibitory concentration (MIC) in assay [7] and in assay [8] was more than 200 mg/L each time.

Turning to `CCCCCCOP(=O)(CCCN(O)C(C)=O)OCCCCCC`, the lowest concentration to inhibit growth in assay [3] (MIC) was 100 mg/L (≈ 274 µM).

Take `CCOC(=O)OC(C)OP(=O)(CCCN(O)C(C)=O)OC(C)OC(=O)OCC` (stereo not drawn): the MIC in assay [1] was 200 mg/L (≈ 466 µM); in assay [2], more than 200 mg/L; in assay [3], 400 mg/L (≈ 932 µM); in assay [4], more than 200 mg/L; in assay [5], more than 200 mg/L; in assay [6] it was more than 200 mg/L. For the same molecule, the minimum inhibitory concentration (MIC) in assay [7] and in assay [8] was more than 200 mg/L each time.

Consider `CC(=O)N(O)CCCP(=O)(OCC(=O)OC(C)(C)C)OCC(=O)OC(C)(C)C`, for which the minimal inhibitory concentration (MIC) in assay [1] is more than 200 mg/L; in assay [2] it was more than 200 mg/L; in assay [3], 400 mg/L (≈ 940 µM); in assay [4], more than 200 mg/L; in assay [5] it was more than 200 mg/L; in assay [6], 100 mg/L (≈ 235 µM). The minimal inhibitory concentration (MIC) is more than 200 mg/L in assay [7] and 25 mg/L (≈ 58.8 µM) in assay [8].

As for `CC(=O)N(O)CCCP(=O)(OC(C)OC(=O)OC(C)(C)C)OC(C)OC(=O)OC(C)(C)C` (stereo not drawn), the minimal inhibitory concentration (MIC) is more than 200 mg/L in assay [1]; more than 200 mg/L in assay [2]; 400 mg/L (≈ 824 µM) in assay [3]; more than 200 mg/L in assay [4]; 200 mg/L (≈ 412 µM) in assay [5]; 100 mg/L (≈ 206 µM) in assay [6]. Also, the MIC in assay [7] is more than 200 mg/L; in assay [8], 50 mg/L (≈ 103 µM).

As to `CC(=O)N(O)CCCP(=O)(OCOC(=O)c1ccccc1)OCOC(=O)c1ccccc1`, the MIC in assay [1] is 50 mg/L (≈ 107 µM); in assay [2] it was 200 mg/L (≈ 430 µM); in assay [3] it was 25 mg/L (≈ 53.7 µM); in assay [4] it was more than 200 mg/L; in assay [5] it was 100 mg/L (≈ 215 µM); in assay [6] it was more than 200 mg/L. In addition, the MIC in assay [7] and in assay [8] was more than 200 mg/L throughout.

Turning to `CC(=O)N(O)CCCP(=O)(OC(C)OC(=O)c1ccccc1)OC(C)OC(=O)c1ccccc1` (stereo not drawn), the MIC in assay [1] was 50 mg/L (≈ 101 µM); in assay [2], 100 mg/L (≈ 203 µM); in assay [3], 100 mg/L (≈ 203 µM); in assay [4], more than 200 mg/L; in assay [5], 50 mg/L (≈ 101 µM); in assay [6], more than 200 mg/L. Besides, the MIC in assay [7] is 50 mg/L (≈ 101 µM).

Consider `CC(=O)N(O)CCCP(=O)(OCOC(=O)C(C)(C)C)OCOC(=O)C(C)(C)C`, for which the MIC in assay [1] is 100 mg/L (≈ 235 µM); in assay [2], more than 200 mg/L; in assay [3], 50 mg/L (≈ 118 µM); in assay [4] it was more than 200 mg/L; in assay [5], 200 mg/L (≈ 470 µM); in assay [6], 100 mg/L (≈ 235 µM). Besides, the minimum inhibitory concentration (MIC) in assay [7] is more than 200 mg/L; in assay [8], 50 mg/L (≈ 118 µM).

On to `O=CN(O)CCCP(=O)(O)O` [FOSMIDOMYCIN], for which the MIC in assay [1] is 6.25 mg/L (≈ 34.1 µM); in assay [2], 100 mg/L (≈ 546 µM); in assay [3], more than 500 mg/L; in assay [4] it was more than 200 mg/L; in assay [5], 0.78 mg/L (≈ 4.26 µM); in assay [6] it was more than 200 mg/L. In addition, the MIC was 12.5 mg/L (≈ 68.3 µM) in assay [7] and 200 mg/L (≈ 1090 µM) in assay [8].
